Values belong to the compound of their own block, whether it stands above or below them.
Assays:
[1] = Influences of different crystalline forms on blood drug levels in rats (pharmacokinetic study, HPLC of plasma); assay type: in vivo
Procedure: 1. Crystal Samples: crystalline form II and V of XLF-III-43, dispersant agent of crystalline form II (obtained by comminuting crystalline form II and V of XLF-III-43).
2. Methodology study of detecting blood drug level
(1) Experimental Conditions:
HPLC: waters 2690 chromatography system, 2487 UV detector, Milnicousamidem 32 chromatography management system. Column: 4.6×250 mm Spherisorb C18 5 μm; flow rate: 1.0 ml/min; column temperature: 25° C.; detection wavelength: 330 nm. After treated by solid phase extraction, plasma samples were directly injected and analyzed.
(4) Recovery experiment: extraction recoveries (greater than 75%) meet the requests that SFDA issued on methods of pharmacokinetic study.
(5) Sensitivity: minimum detectable amount was 2 ng/ml, the minimum limit of quantification was 5 ng/ml.

[2] = test system: acute renal function injury in mice induced by Cisplatin; assay: Effects of different crystalline forms of XLF-III-43 on acute renal function injury in mice induced by Cisplatin (serum BUN and Scr); assay type: in vivo, Male Kunming mice; settings: for BUN / BUN reduction (%) / Scr / Scr reduction (%): dose 25.0 × 3 mg/kg
Procedure: Objective: To observe the effects of different crystal forms of XLF-III-43 on acute renal function injury in mice induced by Cisplatin
Reagents: crystalline form I, II and V of XLF-III-43, all were prepared into suspensions with 0.5% sodium carboxymethylcellulose. Positive control: Losartan potassium, ATIRA Hangzhou Merck Sharp & Dohme Pharmaceutics Company, lot number: S1241. Crude drug of Cisplatin (DDP): Supplied by Shandong Qilu Pharmaceutics Company.
Animal: Male Kunming mice weighing 16 to 22 g were purchased from Institute of Laboratory Animal Sciences, Chinese Academy of Medical Sciences (Type II, Certificate No: SCXK-Jing 2000-0006). All the mice were feeded in standard breeding boxes, 5 per box, kept these boxes dry and clean, ventilate and sterilize animal room at fixed time, lightening time: 8:00-20:00, room temperature: 20-26° C., humidity: 40-70%, forage: clean breeding forage, bought from Animal Center of Academy of Military Medical Sciences, Certificate No: SCXX-(army) 2002-001.
Serum biochemistry kit: Beijing Beihua Refined Chemical Limited-liability Company
Apparatus: WELLSCAN MK3 Scanner, Germent SIGMA3K 15 Centrifuge, TGL-16G Freezing Centrifuge, Shanghai Anting Scientific Instrument Factory, Votex, American Bohemia N.Y Company.
Animal grouping: According to body weights, male Kunming mice weighing 18 to 22 grams were randomly divided into […] groups: control group, Cisplatin group (model group), Losartan potassium group, groups of three crystal forms of XLF-III-43, n=8 for each group.
Modeling and administrating: XLF-III-43 were dissolved in 0.5% sodium carboxymethylcellulose, Losartan potassium and Cisplatin were dissolved in physiological saline. Since two days before giving Cisplatin by peritoneal injection, Losartan potassium group and groups of three crystal forms of XLF-III-43 were intraperitoneally administered respectively. Control animals received an equal volume of physiological saline.
Serum parameters detecting: Blood samples were collected from the orbital venous plexus at day 3, 5, and 7 after injecting Cisplatin. Serum BUN and Scr were detected by serum biochemistry kit.

[3] = one-time orally administered at 30 mg/kg, preliminary pharmacokinetic
[4] = 3 days after injecting Cisplatin
[5] = 5 days after injecting Cisplatin
[6] = 7 days after injecting Cisplatin

time within which it could be detected in plasma ([1]; one-time orally administered at 30 mg/kg): ≤ 36 h | detection in plasma at 48 h ([1]; one-time orally administered at 30 mg/kg, 48 h): could not be detected | maximum plasma concentration Cmax [1, 3]: 2000 ng/mL | peak time (Tmax) [1, 3]: 30 min
Compound: 3-(3′-carboxy-4′-hydroxy-anilino-carbo-)-6-nitro-7-hydroxy-8-methyl-coumarin [XLF-III-43]

Compound: 3-(3′-carboxy-4′-hydroxy-anilino-carbo-)-6-nitro-7-hydroxy-8-methyl-coumarin [crystalline form V of XLF-III-43]
dose-effect relationship of renal function protective effect ([2]; Cisplatin model): good dose-effect relationship | renal function protective effect (serum Scr and BUN) ([2]; Cisplatin model, compared among treated groups (crystalline form I, II, V, Losartan potassium)): best renal function protective effect | blood/plasma concentration ([1]; oral, FIG. 22, within a certain period of time): higher blood concentration than crystalline form II of XLF-III-43

Compound: CCCCc1nc(Cl)c(CO)n1Cc1ccc(-c2ccccc2-c2nn[nH]n2)cc1 [Losartan]
BUN [2, 4]: 30.58 ± 4.19 mg/dL | BUN reduction (%) [2, 4]: −1.9% | Scr [2, 4]: 1.41 ± 1.00 mg/dL | Scr reduction (%) [2, 4]: 22.4% | BUN [2, 5]: 31.75 ± 9.32 mg/dL | BUN reduction (%) [2, 5]: 24.6% | Scr [2, 5]: 1.16 ± 0.48 mg/dL | Scr reduction (%) [2, 5]: 39.3% | BUN [2, 6]: 30.32 ± 2.89 mg/dL | BUN reduction (%) [2, 6]: 23.8% | Scr [2, 6]: 1.74 ± 0.31 mg/dL | Scr reduction (%) [2, 6]: 34.7%
